Broadly, the IC50 is the concentration that gives 50% inhibition.

In patent publication EP0312283A2, “Di-or tripeptide renin inhibitors containing lactam conformational restrictions in ACHPA” (Merck & Co., Inc., priority 1987, dated 1989) one finds IC50 data, which are given here for 1 substance.

This assay deals with human plasma renin. In words: In vitro inhibition of human plasma renin (Boger et al. assay). Format: biochemical. As for the experimental part: In vitro inhibition of human plasma renin was measured as described by Boger, et al., J. Med. Chem (1985) 28, 1779.
They were analyzed for purity by HPLC (30 minute gradient, 5% CH3CN-H2O to 95% CH3CN-H20 buffered with 0.1% H3PO4; C18 reverse phase column), and were analyzed for composition by C, H, and N combustion analysis. IC50 values were measured in vitro using the human plasma renin assay, as described by Boger et al. J. Med. Chem. (1985) 28, 1779.

For “Boc-Phe-His-(ACHP-1-(2-Hydroxyethyl)-2-Pyrrolidinone [Example 3H]”, it took 7.7 nM to reach half-maximal inhibition (IC50).
